Read-outs that look alike come from different tables or passages of the source. Some results are limits rather than exact numbers.

One assay has as its system S. Typhimurium ATCC14028. Description: Static peg assay for prevention of biofilm formation (Calgary device, crystal violet). The assay is classed as cell-based, Salmonella Typhimurium. Here is the method: (§1) Evaluation of the biofilm inhibitory activity of some substituted 2-amino-1H-imidazoles of the invention was carried out by growing up biofilms of S. Typhimurium ATCC14028 or SL1344 or Pseudomonas aeruginosa PA14 in the presence of different concentrations (1/2 dilution series) of biofilm inhibitors, by using the Calgary biofilm device. After an incubation period of 24 hours at 25° C. or 37° C. or 48 hours at 16° C. the biofilms were visualized by crystal violet staining. In the next step the stain was extracted from the biofilm with 30% acetic acid. The absorbance of the resolubilized stain at 570 nm is a measure of the amount of biofilm formed.
In examples 2 and 3, the following materials and methods were used.
The device used for biofilm formation is a platform carrying 96 polystyrene pegs (Nunc no. 445497) that fits as a microtiter plate lid with a peg hanging into each microtiter plate well (Nunc no. 269789). Biofilm formation assays were carried out at 16° C., 25° C. and 37° C.
For biofilm assays at 16° C. and 25° C., two-fold serial dilutions of the compounds in 100 μl liquid TSB 1/20 broth per well were prepared in the microtiter plate. Subsequently, an overnight culture of S. Typhimurium ATCC14028 or SL1344 (grown up in LB medium) was diluted 1:100 into TSB 1/20 broth and 100 μl (ca. 10^6 cells) was added to each well of the microtiter plates, resulting in a total amount of 200 μl medium per well. The pegged lid was placed on the microtiter plate and the plate was incubated for 48 hours at 16° C. or for 24 hours at 25° C. without shaking. During this incubation period biofilms were formed on the surface of the pegs. In case of the assay at 16° C., after 24 hours the lid was transferred into a new plate with medium and the specific molecules used for testing. […] For quantification of biofilm formation, the pegs were washed once in 200 μl phosphate buffered saline (PBS). The remaining attached bacteria were stained for 30 minutes with 200 μl 0.1% (w/v) crystal violet in an isopropanol/methanol/PBS solution (v/v 1:1:18). Excess stain was rinsed off by placing the pegs in a 96-well plate filled with 200 μl distilled water per well. After the pegs were air dried (30 min), the dye bound to the adherent cells was extracted with 30% glacial acetic acid (200 μl). The OD570 of each well was measured using the VERSAmax microtiter plate reader. The IC50 value for each compound was determined from concentration gradients in two or three independent experiments (with 2 or 3 repeats per experiment), by using the GraphPad software of Prism.
For biofilm assays at 37° C., two-fold serial dilutions of the compounds in 50 μl liquid CFA broth per well were prepared in the microtiter plate. Subsequently, an overnight culture of S. Typhimurium ATCC 14028 was diluted 1:100 into CFA broth and 100 μl (ca. 10^6 cells) was added to each well of the microtiter plates, resulting in a total amount of 150 μl medium per well. The pegged lid was placed on the microtiter plate and the plate was incubated for 24 hours at 37° C. without shaking. During incubation the plates were placed in a humidity controlled container to prevent evaporation of the growth medium. Quantification of biofilm formation was performed similarly as described above for the assays at 16° C. and 25° C.
as §1, with “imidazo[1,2-a]pyrimidinium bromide salts” for “2-amino-1H-imidazoles”

Assay [1] relates to Pseudomonas aeruginosa PA14. The assay is described as above. The format is cell-based. Here is the method: as §1
The device used for Pseudomonas aeruginosa biofilm formation is the same platform carrying polystyrene pegs as described above for Salmonella Typhimurium.
Two-fold serial dilutions of the compounds in 100 μl liquid broth per well were prepared in the microtiter plate. Subsequently, an overnight culture of P. aeruginosa PA14 (grown up in TSB medium) was diluted 1:100 into liquid broth and 100 μl was added to each well of the microtiter plates, resulting in a total amount of 200 μl medium per well. The pegged lid was placed on the microtiter plate and the plate was incubated for 24 hours at 25° C., 30° C. or 37° C. without shaking. During this incubation period biofilms were formed on the surface of the pegs. The liquid broth used for the tests at 25° C. was TSB 1/20. The tests at 37° C. were performed in CFA and/or LBNS broth. During incubation at 30° C. and 37° C. the plates were placed in a humidity controlled container to prevent evaporation of the growth medium. Quantification of biofilm formation was performed similarly as described previously for the S. Typhimurium biofilm assays.
as §1, with “imidazo[1,2-a]pyrimidinium bromide salts” for “2-amino-1H-imidazoles”
as §1, with “substituted imidazo[1,2-a]-pyrimidinium bromide and perchlorate salts produced according to examples 3 and 5” for “substituted 2-amino-1H-imidazoles of the invention”, “C.” for “C. or 37° C. or 48 hours at 16° C.”, “nm was taken as” for “nm is”

[2] abbreviates: 25° C., 24 hours, Table 15, read-out: (1) IC50 (biofilm inhibition).
[3] abbreviates: 25° C., Table 16, read-out: S. Typhimurium IC50 (biofilm formation).
Setting [4] is: 25° C., 24 hours, Table 15, read-out: (2) IC50 (biofilm inhibition).
The mark [5] stands for this setting: 25° C., Table 16, read-out: P. aeruginosa IC50 (biofilm formation).
The mark [6] stands for this setting: Salmonella enterica, 24 h, read-out: (1) IC50 (biofilm inhibition).
[7] abbreviates: Pseudomonas aeruginosa, PA14, 24 h, read-out: (2) IC50 (biofilm inhibition).

In the case of `CCCCCCCCCCCN1c2nccc[n+]2CC1(O)c1ccccc1` (racemic) [Compound 11], the IC50 (usually the concentration at which inhibition is half-maximal) with S. Typhimurium ATCC14028 (setting [2]) was 24.6 µM; with S. Typhimurium ATCC14028 (setting [3]), 24.6 µM; in assay [1] (setting [4]) it was 28.6 µM; in assay [1] (setting [5]), more than 800 µM.
For the compound `CCCCCCCCCCCCN1c2nccc[n+]2CC1(O)c1ccccc1` (racemic) [Compound 12], the IC50 in the assay with S. Typhimurium ATCC14028 (setting [2]) was 27.5 µM; with S. Typhimurium ATCC14028 (setting [3]), 27.5 µM; in assay [1] (setting [4]), 9.63 µM; in assay [1] (setting [5]), more than 800 µM.
Regarding `CCCCCCCCCCCCCN1c2nccc[n+]2CC1(O)c1ccccc1` (racemic) [Compound 13], the IC50 with S. Typhimurium ATCC14028 (setting [2]) was 81.6 µM; with S. Typhimurium ATCC14028 (setting [3]) it was 81.6 µM; in assay [1] (setting [4]), 17 µM; in assay [1] (setting [5]) it was more than 800 µM.
Take `CCCCCCCCCCCCCCN1c2nccc[n+]2CC1(O)c1ccccc1` (racemic) [Compound 14]: the IC50 was 180 µM with S. Typhimurium ATCC14028 (setting [2]), 180 µM with S. Typhimurium ATCC14028 (setting [3]) and more than 800 µM in assay [1] (setting [5]).
Regarding `CCCCN1c2nccc[n+]2CC1(O)c1ccc(Cl)cc1` (racemic) [Compound 16], the IC50 was 29.7 µM with S. Typhimurium ATCC14028 (setting [3]) and 24.9 µM in assay [1] (setting [5]).
With `CC(C)CN1c2nccc[n+]2CC1(O)c1ccc(Cl)cc1` (racemic) [Compound 17], the results for the IC50 (in the assay on S. Typhimurium ATCC14028 (setting [3]); in assay [1] (setting [5])) were 31.4 µM and 83.4 µM, respectively.
For the compound `CCCCCN1c2nccc[n+]2CC1(O)c1ccc(Cl)cc1` (racemic) [Compound 18], the IC50 in the assay on S. Typhimurium ATCC14028 (setting [3]) amounted to 32.6 µM; in assay [1] (setting [5]) it was 164 µM.
On to `CCCCCCN1c2nccc[n+]2CC1(O)c1ccc(Cl)cc1` (racemic) [Compound 19], for which the IC50 in the assay with S. Typhimurium ATCC14028 (setting [2]) stood at 13.7 µM; in the assay with S. Typhimurium ATCC14028 (setting [3]) it was 13.7 µM; in assay [1] (setting [4]), 20.2 µM; in assay [1] (setting [5]), 79.8 µM.
`CCCCCCCN1c2nccc[n+]2CC1(O)c1ccc(Cl)cc1` (racemic) [Compound 20]: the IC50 in the assay with S. Typhimurium ATCC14028 (setting [2]) was 6.67 µM; with S. Typhimurium ATCC14028 (setting [3]), 6.7 µM; in assay [1] (setting [4]), approximately 12.5 µM; in assay [1] (setting [5]) it was 36.9 µM.
Turning to `CCCCCCCCN1c2nccc[n+]2CC1(O)c1ccc(Cl)cc1` (racemic) [Compound 21], the half-inhibitory concentration (IC50) was 6.98 µM in the assay with S. Typhimurium ATCC14028 (setting [2]), 7 µM in the assay with S. Typhimurium ATCC14028 (setting [3]), 11.7 µM in assay [1] (setting [4]) and 21.7 µM in assay [1] (setting [5]).
Regarding `CCCCCCCCCN1c2nccc[n+]2CC1(O)c1ccc(Cl)cc1` (racemic) [Compound 22], the IC50 in the assay on S. Typhimurium ATCC14028 (setting [2]) is 18.3 µM; with S. Typhimurium ATCC14028 (setting [3]), 18.3 µM; in assay [1] (setting [4]), 60.5 µM; in assay [1] (setting [5]) it was 21 µM.
Take `CCCCCCCCCCN1c2nccc[n+]2CC1(O)c1ccc(Cl)cc1` (racemic) [Compound 23]: the IC50 in the assay on S. Typhimurium ATCC14028 (setting [2]) amounted to 51.3 µM; in the assay with S. Typhimurium ATCC14028 (setting [3]), 51.3 µM; in assay [1] (setting [4]) it was 193 µM; in assay [1] (setting [5]) it was 66.4 µM.
Consider `CCCCCCCCCCCN1c2nccc[n+]2CC1(O)c1ccc(Cl)cc1` (racemic) [Compound 24], for which the IC50 was 61.9 µM in the assay with S. Typhimurium ATCC14028 (setting [2]), 61.9 µM with S. Typhimurium ATCC14028 (setting [3]), 205 µM in assay [1] (setting [4]) and more than 800 µM in assay [1] (setting [5]).
On to `CCCCCCCCCCCCN1c2nccc[n+]2CC1(O)c1ccc(Cl)cc1` (racemic) [Compound 25], for which the IC50 is 122 µM in the assay on S. Typhimurium ATCC14028 (setting [2]), 122 µM in the assay on S. Typhimurium ATCC14028 (setting [3]), 119 µM in assay [1] (setting [4]) and more than 800 µM in assay [1] (setting [5]).
Regarding `CCCCCCCCCCCCCN1c2nccc[n+]2CC1(O)c1ccc(Cl)cc1` (racemic) [Compound 26], the half-maximal inhibitory concentration (IC50) is 316 µM with S. Typhimurium ATCC14028 (setting [2]), 316 µM in the assay with S. Typhimurium ATCC14028 (setting [3]), 59 µM in assay [1] (setting [4]) and more than 800 µM in assay [1] (setting [5]).
For the compound `CCCCCCCCCCCCCCN1c2nccc[n+]2CC1(O)c1ccc(Cl)cc1` (racemic) [Compound 27], the IC50 (with S. Typhimurium ATCC14028 (setting [3]); in assay [1] (setting [5])) was more than 800 µM throughout.
Consider `CCN1c2nccc[n+]2CC1(O)c1ccc([N+](=O)[O-])cc1` (racemic) [Compound 29], for which the IC50 was 579 µM in the assay on S. Typhimurium ATCC14028 (setting [3]) and more than 800 µM in assay [1] (setting [5]).
On to `CC(C)N1c2nccc[n+]2CC1(O)c1ccc([N+](=O)[O-])cc1` (racemic) [Compound 30], for which the IC50 with S. Typhimurium ATCC14028 (setting [3]) turned out to be 466 µM; in assay [1] (setting [5]) it was 192 µM.
For `CCCCCCCC[n+]1c(-c2cccc3ccccc23)cn2cccnc21.[O-][Cl+3]([O-])([O-])[O-]` [1-octyl-2-(1-naphthalenyl)-imidazo[1,2-a]-pyrimidin-1-ium perchlorate], the figures for the IC50 (in the assay on S. Typhimurium ATCC14028 (setting [6]); in assay [1] (setting [7])) were approximately 6.6 µM and 6.83 µM, respectively.
For `CCCCCCCC[n+]1c(-c2ccc(S(C)(=O)=O)cc2)cn2cccnc21.[O-][Cl+3]([O-])([O-])[O-]` [1-octyl-2-(4-methylsulfonylphenyl)-imidazo[1,2-a]pyrimidin-1-ium perchlorate], the IC50 with S. Typhimurium ATCC14028 (setting [6]) is 82 µM; in assay [1] (setting [7]), 49.6 µM.
With `CCCCCCCC[n+]1c(-c2ccc(-c3ccc([N+](=O)[O-])cc3)cc2)cn2cccnc21.[O-][Cl+3]([O-])([O-])[O-]` [1-octyl-2-(4′-nitro[1,1-biphenylyl]-4-yl)-imidazo[1,2-a]pyrimidin-1-ium perchlorate], the 50% inhibitory concentration (IC50) is 1.49 µM in the assay on S. Typhimurium ATCC14028 (setting [2]) and 1.04 µM in assay [1] (setting [4]).
For `CCCCCCCC[n+]1c(-c2ccc(Cl)c(Cl)c2)cn2cccnc21.[O-][Cl+3]([O-])([O-])[O-]` [2-(3,4-Dichlorophenyl)-1-octylimidazo[1,2-a]pyrimidin-1-ium perchlorate], the results for the concentration for half-maximal inhibition (IC50) (with S. Typhimurium ATCC14028 (setting [6]); in assay [1] (setting [7])) were 3.84 µM and 12.7 µM, respectively.
Consider `CCCCCCCC[n+]1c(-c2cccc(Br)c2)cn2cccnc21.[O-][Cl+3]([O-])([O-])[O-]` [2-(3-Bromophenyl)-1-octylimidazo[1,2-a]pyrimidin-1-ium perchlorate], for which the concentration for half-maximal inhibition (IC50) with S. Typhimurium ATCC14028 (setting [6]) is 7.33 µM; in assay [1] (setting [7]), 7 µM.
In the case of `CCCCCCCC[n+]1c(-c2ccc(F)cc2)cn2cccnc21.[O-][Cl+3]([O-])([O-])[O-]` [2-(4-Fluorophenyl)-1-octylimidazo[1,2-a]pyrimidin-1-ium perchlorate], the IC50 in the assay with S. Typhimurium ATCC14028 (setting [6]) was found to be 35.7 µM; in assay [1] (setting [7]), 19.5 µM.
For `CCCCCCCC[n+]1c(-c2ccc(OC)cc2)cn2cccnc21.[O-][Cl+3]([O-])([O-])[O-]` [2-(4-Methoxyphenyl)-1-octylimidazo[1,2-a]pyrimidin-1-ium perchlorate] the same measures were 34.8 µM and 8.73 µM.

(Values after patent publication US20130029981A1, “COMPOUNDS, COMPOSITIONS, AND METHODS FOR CONTROLLING BIOFILMS” (Katholieke Universiteit Leuven, priority 2009, published 2013).)
